Reference: PMC12510174 (International Journal of Biological Sciences, 2025)

How the values were obtained:
[1] = test system: WERI-Rb1 orthotopic RB model; conditions: mouse, in vivo
[2] = test system: WERI-Rb1 orthotopic RB model; conditions: mouse, in vivo; remark: listed apart in the source
[3] = test system: WERI-Rb1 orthotopic RB model; conditions: mouse, in vivo; remark: listed apart in the source
[4] = test system: WERI-Rb1 orthotopic RB model; conditions: mouse, in vivo; remark: listed apart in the source
[5] = mouse, in vivo
retinoblastoma = conditions: human, in vivo; cited from earlier work

SMILES	FITC-labeled Pri-MP uptake (Endocytosis species) alone or with added inhibitor (WERI-Rb1)	FITC-labeled Pri-MP uptake (Endocytosis species) alone or with added inhibitor (Y79)	reduction of Pri-MP uptake relative to vehicle controls (RB cells)	further results
N[C@@H](Cc1ccc(N(CCCl)CCCl)cc1)C(=O)O [Melphalan]	–	–	–	reduction of tumor burden (tumor area) [1]: 82.6%; TUNEL positivity relative to the Control group [2]: 1.77 fold; decrease of Ki-67 expression relative to the control [3]: about 30.3%; increase of p53 expression relative to the Control group [4]: 71%; alanine aminotransferase and aspartate aminotransferase levels [5]: did not significantly deviate from the Control group; body weight during treatment [5]: no significant difference; overall globe salvage rate (retinoblastoma): 66.4%
N=C(N)NC(=O)c1nc(Cl)c(N)nc1N [amiloride]	22.9%	29.8%	–	inhibitory effect on Pri-MP uptake (WERI-Rb1): 73.0%; inhibitory effect on Pri-MP uptake (Y79): 64.5%
CN(C)CCCN1c2ccccc2Sc2ccc(Cl)cc21 [chlorpromazine]	87.0%	87.6%	< 10%	–
C=C1[C@@H](C)[C@H]2[C@H](Cc3ccccc3)NC(=O)[C@]23[C@H](OC(C)=O)/C=C/[C@@](C)(O)C(=O)[C@@H](C)C/C=C/[C@H]3[C@@H]1O [cytochalasin D]	38.4%	22.3%	–	inhibitory effect on Pri-MP uptake (WERI-Rb1): 55.4%; inhibitory effect on Pri-MP uptake (Y79): 72.4%
O=C(N/N=C/c1ccc(O)c(O)c1)c1cc2ccccc2cc1O [dynasore]	70.1%	73.8%	< 10%	–
CCCCC[C@@H](O)[C@H]1C(=O)O[C@H](C)[C@@H](O)/C=C/C=C/C=C/C=C/C=C(\C)[C@@H](O)C[C@H](O)C[C@H](O)C[C@H](O)C[C@H](O)C[C@H](O)C[C@@H]1O [filipin]	84.8%	78.6%	< 10%	–
O=c1c(-c2ccc(O)cc2)coc2cc(O)cc(O)c12 [genistein]	87.0%	85.2%	–	–
